# Patent US8192962B2, “Processes for detecting toxic substances” (Daikin Industries, Ltd., priority 2001, dated 2012)
# System: Energy system protein genes
# Experiment: DNA chip mRNA expression in yeast, energy system protein genes (Table 4)
# Type: cell-based, Saccharomyces cerevisiae S288C
# In short: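 First, S288C yeast grown in YPD at 25° C. are dosed in log phase with one toxicant (growth-inhibiting, not lethal) for 2 h. Next, total RNA is extracted and poly(A) mRNA isolated and reverse-transcribed with Cy3/Cy5-dUTP. Finally, whole-genome chip fluorescence is read relative to unexposed cells.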
smiles,measurement,setting,value
"C[S+](C)[O-] [(15), dimethylsulfoxide]",The level of expressed mRNA in the presence of chemical substance/The level of expressed mRNA in the absence of chemical substance,yeast gene YJL052W,2.3
same,The level of expressed mRNA in the presence of chemical substance/The level of expressed mRNA in the absence of chemical substance,"yeast gene YJL166W, cells incubated two hours with the chemical substance",0.5
same,The level of expressed mRNA in the presence of chemical substance/The level of expressed mRNA in the absence of chemical substance,yeast gene YJR009C,2.1
same,The level of expressed mRNA in the presence of chemical substance/The level of expressed mRNA in the absence of chemical substance,yeast gene YJR048W,0.6
same,The level of expressed mRNA in the presence of chemical substance/The level of expressed mRNA in the absence of chemical substance,yeast gene YJR155W,2.6
same,The level of expressed mRNA in the presence of chemical substance/The level of expressed mRNA in the absence of chemical substance,"yeast gene YKL016C, cells incubated two hours with the chemical substance",0.7
same,The level of expressed mRNA in the presence of chemical substance/The level of expressed mRNA in the absence of chemical substance,yeast gene YKL035W,1.0
same,The level of expressed mRNA in the presence of chemical substance/The level of expressed mRNA in the absence of chemical substance,"yeast gene YKL060C, cells incubated two hours with the chemical substance",1.6
same,The level of expressed mRNA in the presence of chemical substance/The level of expressed mRNA in the absence of chemical substance,"yeast gene YKL085W, cells incubated two hours with the chemical substance",0.5
same,The level of expressed mRNA in the presence of chemical substance/The level of expressed mRNA in the absence of chemical substance,yeast gene YKL150W,0.9
same,The level of expressed mRNA in the presence of chemical substance/The level of expressed mRNA in the absence of chemical substance,yeast gene YKL152C,1.8
same,The level of expressed mRNA in the presence of chemical substance/The level of expressed mRNA in the absence of chemical substance,"yeast gene YKR058W, cells incubated two hours with the chemical substance, 25° C., YPD medium",0.5
same,The level of expressed mRNA in the presence of chemical substance/The level of expressed mRNA in the absence of chemical substance,yeast gene YKR097W,2.5
same,The level of expressed mRNA in the presence of chemical substance/The level of expressed mRNA in the absence of chemical substance,"yeast gene YLL041C, cells incubated two hours with the chemical substance",0.4
same,The level of expressed mRNA in the presence of chemical substance/The level of expressed mRNA in the absence of chemical substance,"yeast gene YLR038C, cells incubated two hours with the chemical substance",0.7
same,The level of expressed mRNA in the presence of chemical substance/The level of expressed mRNA in the absence of chemical substance,"yeast gene YLR164W, cells incubated two hours with the chemical substance",0.7
same,The level of expressed mRNA in the presence of chemical substance/The level of expressed mRNA in the absence of chemical substance,"yeast gene YLR174W, cells incubated two hours with the chemical substance",0.8
same,The level of expressed mRNA in the presence of chemical substance/The level of expressed mRNA in the absence of chemical substance,yeast gene YLR273C,2.6
same,The level of expressed mRNA in the presence of chemical substance/The level of expressed mRNA in the absence of chemical substance,"yeast gene YLR295C, cells incubated two hours with the chemical substance, 25° C., YPD medium",0.5
same,The level of expressed mRNA in the presence of chemical substance/The level of expressed mRNA in the absence of chemical substance,"yeast gene YLR304C, cells incubated two hours with the chemical substance",1.6
same,The level of expressed mRNA in the presence of chemical substance/The level of expressed mRNA in the absence of chemical substance,yeast gene YLR345W,1.0
same,The level of expressed mRNA in the presence of chemical substance/The level of expressed mRNA in the absence of chemical substance,"yeast gene YLR377C, cells incubated two hours with the chemical substance",0.8
same,The level of expressed mRNA in the presence of chemical substance/The level of expressed mRNA in the absence of chemical substance,"yeast gene YLR395C, cells incubated two hours with the chemical substance",0.4
same,The level of expressed mRNA in the presence of chemical substance/The level of expressed mRNA in the absence of chemical substance,yeast gene YML054C,1.1
same,The level of expressed mRNA in the presence of chemical substance/The level of expressed mRNA in the absence of chemical substance,yeast gene YML087C,0.3
same,The level of expressed mRNA in the presence of chemical substance/The level of expressed mRNA in the absence of chemical substance,yeast gene YML100W,1.8
same,The level of expressed mRNA in the presence of chemical substance/The level of expressed mRNA in the absence of chemical substance,"yeast gene YML120C, cells incubated two hours with the chemical substance",0.5
same,The level of expressed mRNA in the presence of chemical substance/The level of expressed mRNA in the absence of chemical substance,yeast gene YML125C,1.9
same,The level of expressed mRNA in the presence of chemical substance/The level of expressed mRNA in the absence of chemical substance,yeast gene YMR089C,1.8
same,The level of expressed mRNA in the presence of chemical substance/The level of expressed mRNA in the absence of chemical substance,yeast gene YMR105C,0.9
same,The level of expressed mRNA in the presence of chemical substance/The level of expressed mRNA in the absence of chemical substance,yeast gene YMR118C,0.9
same,The level of expressed mRNA in the presence of chemical substance/The level of expressed mRNA in the absence of chemical substance,"yeast gene YMR261C, cells incubated two hours with the chemical substance",0.8
same,The level of expressed mRNA in the presence of chemical substance/The level of expressed mRNA in the absence of chemical substance,yeast gene YNL037C,0.9
same,The level of expressed mRNA in the presence of chemical substance/The level of expressed mRNA in the absence of chemical substance,yeast gene YNL071W,1.1
same,The level of expressed mRNA in the presence of chemical substance/The level of expressed mRNA in the absence of chemical substance,yeast gene YNL237W,1.6
same,The level of expressed mRNA in the presence of chemical substance/The level of expressed mRNA in the absence of chemical substance,yeast gene YNL331C,2.3
same,The level of expressed mRNA in the presence of chemical substance/The level of expressed mRNA in the absence of chemical substance,"yeast gene YOL086C, cells incubated two hours with the chemical substance",1.6
same,The level of expressed mRNA in the presence of chemical substance/The level of expressed mRNA in the absence of chemical substance,yeast gene YOL126C,1.4
same,The level of expressed mRNA in the presence of chemical substance/The level of expressed mRNA in the absence of chemical substance,yeast gene YOL157C,1.1
same,The level of expressed mRNA in the presence of chemical substance/The level of expressed mRNA in the absence of chemical substance,yeast gene YOL165C,3.0
same,The level of expressed mRNA in the presence of chemical substance/The level of expressed mRNA in the absence of chemical substance,yeast gene YOR136W,1.2
same,The level of expressed mRNA in the presence of chemical substance/The level of expressed mRNA in the absence of chemical substance,yeast gene YOR221C,1.0
same,The level of expressed mRNA in the presence of chemical substance/The level of expressed mRNA in the absence of chemical substance,yeast gene YOR347C,2.0
same,The level of expressed mRNA in the presence of chemical substance/The level of expressed mRNA in the absence of chemical substance,"yeast gene YPL031C, cells incubated two hours with the chemical substance",0.7
same,The level of expressed mRNA in the presence of chemical substance/The level of expressed mRNA in the absence of chemical substance,yeast gene YPL088W,3.2
same,The level of expressed mRNA in the presence of chemical substance/The level of expressed mRNA in the absence of chemical substance,yeast gene YPL171C,1.4
same,The level of expressed mRNA in the presence of chemical substance/The level of expressed mRNA in the absence of chemical substance,yeast gene YPL240C,1.2
same,The level of expressed mRNA in the presence of chemical substance/The level of expressed mRNA in the absence of chemical substance,yeast gene YPL271W,0.8
same,The level of expressed mRNA in the presence of chemical substance/The level of expressed mRNA in the absence of chemical substance,yeast gene YPR006C,0.7
same,The level of expressed mRNA in the presence of chemical substance/The level of expressed mRNA in the absence of chemical substance,yeast gene YPR026W,3.1
